Values of other authors as cited in patent US6686348B2, “Metalloprotease inhibitors” (Les Laboratoires Servier, priority 2000, dated 2004).

System: ovarian cancers
Details: Becket et al., DDT 1996

CNC(=O)[C@H](Cc1ccccc1)NC(=O)[C@H](CC(C)C)[C@H](CSc1cccs1)C(=O)NO [BB94]
anti-tumour activity in clinical use: active against ovarian cancers
